Measurements from US20250144067A1, “PERSONALIZED STARVATION THERAPY FOR CANCER” (Faeth Therapeutics, Inc., priority 2021, published 2025).
Where a name gives a salt, the structure may show the parent alone. Read-outs that look alike come from different tables or passages of the source.

Key:
[1] = system: NCI-H292 lung cancer cells; assay: FDA drug screening, complete media vs cholesterol-free media without statin (TABLE 1); type: cell-based, human
[2] = system: NCI-H292 lung cancer cells; assay: FDA drug screening, complete media vs cholesterol-free media with simvastatin (TABLE 2); type: cell-based, human
[3] = NCI-H292 cells, cholesterol-free media without statin
[4] = complete vs cholesterol-free media, greater than 0 enhanced anti-cancer activity, about 0 neutral, below 0 antagonists
[5] = NCI-H292 cells, cholesterol-free media with simvastatin 0.04 μM, cell growth value in FDA drug screen
[6] = NCI-H292 cells, complete media, cell growth value in FDA drug screen
[7] = complete media minus cholesterol-free media + simvastatin, >0 enhanced anti-cancer activity, about 0 neutral, <0 antagonist
[8] = NCI-H292 cells, drug in cholesterol-free media with simvastatin 0.04 μM
[9] = NCI-H292 cells, drug in complete media
[10] = complete media vs cholesterol-free media + simvastatin (0.04 μM), >0 enhanced anti-cancer activity, about 0 neutral, <0 antagonist
[11] = Complete minus Cholesterol-free, […]
[12] = NCI-H292 cells, FDA drug library screen, cholesterol-free media without statin
[13] = NCI-H292 cells, FDA drug library screen, complete media
[14] = NCI-H292 cells, FDA library drug in cholesterol-free media with simvastatin 0.04 μM
[15] = complete media vs cholesterol-free media + simvastatin (0.04 μM), […]
[16] = NCI-H292 cells, cholesterol-free media without statin, FDA drug library screen
[17] = NCI-H292 cells, complete media, FDA drug library screen
[18] = complete vs cholesterol-free media, >0 enhanced anti-cancer activity, about 0 neutral, <0 antagonist
[19] = Complete minus Cholesterol-free, >0 enhanced anti-cancer activity, about 0 neutral, <0 antagonist
[20] = Complete minus Cholesterol-free, greater than 0 enhanced anti-cancer activity, about 0 neutral, below 0 antagonist
[21] = NCI-H292 cells, FDA drug library screen, cholesterol-free media with simvastatin 0.04 μM
[22] = NCI-H292 cells, FDA library drug in complete media
[23] = Complete minus Cholesterol-free, greater than 0 enhanced anti-cancer activity, about 0 neutral, below 0 antagonists
[24] = NCI-H292 cells in cholesterol-free media without statin
[25] = NCI-H292 cells in complete media
[26] = NCI-H292 cells, cholesterol-free media with simvastatin 0.04 μM, FDA drug library screen (TABLE 2)
[27] = NCI-H292 cells, complete media, FDA drug library screen (TABLE 2)
[28] = complete media minus cholesterol-free media + simvastatin (0.04 μM), >0 enhanced anti-cancer activity, about 0 neutral, <0 antagonist

O=C(Oc1ccccc1C(=O)O)c1ccccc1O [Salsalate]
Cholesterol-free [1, 3]: 1.58 | Complete ([1]; NCI-H292 cells, complete media): 1.132 | Difference [1, 4]: −0.45 | Cholesterol-free media + simvastatin (0.04 μM) [2, 5]: 0.8804 | Complete Media [2, 6]: 0.9361 | Difference [2, 7]: 0.06

CCOc1ccc2nc(SCCN3CCOCC3)[nH]c2c1 [Fabomotizole (hydrochloride)]
Cholesterol-free [1, 3]: 1.463 | Complete ([1]; NCI-H292 cells, complete media): 1.068 | Difference [1, 4]: −0.39 | Cholesterol-free media + simvastatin (0.04 μM) [2, 8]: 1.167 | Complete Media [2, 9]: 0.9459 | Difference [2, 10]: −0.22

Almotriptan (malate)
Difference [1, 11]: −0.08 | Cholesterol-free [1, 12]: 0.8422 | Complete [1, 13]: 0.7605 | Cholesterol-free media + simvastatin (0.04 μM) [2, 14]: 1.642 | Difference [2, 15]: −0.54

C#Cc1cccc(Nc2ncnc3cc(OCCOC)c(OCCOC)cc23)c1 [Erlotinib (Hydrochloride)]
Cholesterol-free [1, 16]: 0.2078 | Complete [1, 17]: 0.4921 | Difference [1, 18]: 0.28 | Cholesterol-free media + simvastatin (0.04 μM) [2, 5]: 0.6388 | Complete Media [2, 6]: 0.67 | Difference [2, 7]: 0.03

CCCc1nn(C)c2c(=O)[nH]c(-c3cc(S(=O)(=O)N4CCN(CCO)CC4)ccc3OCC)nc12 [Lodenafil]
Difference [1, 19]: −0.27 | Cholesterol-free [1, 3]: 0.8421 | Complete ([1]; NCI-H292 cells, complete media): 0.5699 | Cholesterol-free media + simvastatin (0.04 μM) [2, 5]: 0.819 | Complete Media [2, 6]: 0.8488 | Difference [2, 7]: 0.03

Clc1cccc(Cl)c1N=C1NCCN1 [Clonidine (hydrochloride)]
Difference [1, 20]: −0.12 | Cholesterol-free [1, 12]: 0.9351 | Complete [1, 13]: 0.8162 | Cholesterol-free media + simvastatin (0.04 μM) [2, 21]: 1.083 | Complete Media [2, 13]: 0.9532 | Difference [2, 10]: −0.13

CC1(C)[C@@H](O[C@H]2O[C@H](C(=O)[O-])[C@@H](O)[C@H](O)[C@H]2O[C@@H]2O[C@H](C(=O)[O-])[C@@H](O)[C@H](O)[C@H]2O)CC[C@]2(C)[C@H]3C(=O)C=C4[C@@H]5C[C@@](C)(C(=O)O)CC[C@]5(C)CC[C@@]4(C)[C@]3(C)CC[C@@H]12.[K+].[K+] [Dipotassium glycyrrhizinate]
Difference [1, 11]: 0.00 | Cholesterol-free [1, 16]: 1.01 | Complete [1, 17]: 1.007 | Cholesterol-free media + simvastatin (0.04 μM) [2, 8]: 1.125 | Complete Media [2, 9]: 0.9331 | Difference [2, 15]: −0.19

CC(=O)OCC(=O)[C@@]1(O)CC[C@H]2[C@@H]3CCC4=CC(=O)CC[C@]4(C)[C@H]3[C@@H](O)C[C@@]21C [Hydrocortisone acetate]
Difference [1, 19]: −0.20 | Cholesterol-free [1, 3]: 0.8261 | Complete ([1]; NCI-H292 cells, complete media): 0.6264 | Cholesterol-free media + simvastatin (0.04 μM) [2, 21]: 0.7827 | Complete Media [2, 13]: 0.63 | Difference [2, 10]: −0.15

COC(=O)c1cc(OC)c2c(c1-c1c(CO)cc(OC)c3c1OCO3)OCO2 [Bicyclol]
Cholesterol-free [1, 16]: 0.552 | Complete [1, 17]: 0.7456 | Difference [1, 18]: 0.19 | Cholesterol-free media + simvastatin (0.04 μM) [2, 14]: 1.331 | Complete Media [2, 22]: 1.025 | Difference [2, 10]: −0.31

COC1=CC(=O)C[C@@H](C)[C@]12Oc1c(Cl)c(OC)cc(OC)c1C2=O [Griseofulvin]
Difference [1, 23]: −0.63 | Cholesterol-free [1, 24]: 1.326 | Complete [1, 25]: 0.6963 | Cholesterol-free media + simvastatin (0.04 μM) [2, 8]: 1.385 | Complete Media [2, 9]: 1.224 | Difference [2, 10]: −0.16

OCC(S)CS (centres unmarked) [Dimercaprol]
Difference [1, 20]: −0.18 | Cholesterol-free [1, 12]: 0.9919 | Complete [1, 13]: 0.8115 | Cholesterol-free media + simvastatin (0.04 μM) [2, 21]: 0.8801 | Complete Media [2, 13]: 1.094 | Difference [2, 7]: 0.21

Cc1cc(C)nc(NS(=O)(=O)c2ccc(N)cc2)n1 [Sulfamethazine]
Difference [1, 23]: −0.77 | Cholesterol-free [1, 24]: 1.661 | Complete [1, 25]: 0.8945 | Cholesterol-free media + simvastatin (0.04 μM) [2, 21]: 1.21 | Complete Media [2, 13]: 1.052 | Difference [2, 10]: −0.16

N#Cc1ccnc(N2C(=O)CC[C@H]2C(=O)N(c2cncc(F)c2)[C@H](C(=O)NC2CC(F)(F)C2)c2ccccc2Cl)c1 [Ivosidenib]
Difference [1, 20]: −0.17 | Cholesterol-free [1, 12]: 0.9061 | Complete [1, 13]: 0.7326 | Cholesterol-free media + simvastatin (0.04 μM) [2, 5]: 0.8742 | Complete Media [2, 6]: 0.9265 | Difference [2, 7]: 0.05

N#Cc1ccc(C2CCCc3cncn32)cc1 (centres unmarked) [Fadrozole hydrochloride]
Cholesterol-free [1]: 1.643 | Complete [1]: 1.101 | Difference [1]: −0.54 | Cholesterol-free media + simvastatin (0.04 μM) [2]: 0.9854 | Complete Media [2]: 0.9477 | Difference [2]: −0.04

CC(C)(C(=O)O)c1ccc(C(O)CCCN2CCC(C(O)(c3ccccc3)c3ccccc3)CC2)cc1 (centres unmarked) [Fexofenadine (hydrochloride)]
Difference [1, 19]: −0.02 | Cholesterol-free [1, 16]: 1.052 | Complete [1, 17]: 1.034 | Cholesterol-free media + simvastatin (0.04 μM) [2, 14]: 1.402 | Complete Media [2, 22]: 1.104 | Difference [2, 10]: −0.30

C/C(=C\c1csc(C)n1)[C@@H]1C[C@@H]2O[C@]2(C)CCC[C@H](C)[C@H](O)[C@@H](C)C(=O)C(C)(C)[C@@H](O)CC(=O)N1 [Ixabepilone]
Difference [1, 19]: −0.01 | Cholesterol-free [1, 16]: 0.1019 | Complete [1, 17]: 0.09155 | Cholesterol-free media + simvastatin (0.04 μM) [2, 26]: 0.1261 | Complete Media [2, 27]: 0.1336 | Difference [2, 28]: 0.01

COc1cc(N2CCC(N3CCN(C)CC3)CC2)ccc1Nc1ncc(Cl)c(Nc2ccccc2P(C)(C)=O)n1 [Brigatinib]
Cholesterol-free [1, 16]: 0.5531 | Complete [1, 17]: 0.9482 | Difference [1, 18]: 0.40 | Cholesterol-free media + simvastatin (0.04 μM) [2, 8]: 0.8361 | Complete Media [2, 9]: 0.6309 | Difference [2, 10]: −0.21

CN(C)C(=O)C(CCN1CCC(O)(c2ccc(Cl)cc2)CC1)(c1ccccc1)c1ccccc1 [Loperamide (hydrochloride)]
Cholesterol-free [1]: 1.105 | Complete [1]: 0.9631 | Difference [1]: −0.14 | Cholesterol-free media + simvastatin (0.04 μM) [2]: 1.197 | Complete Media [2]: 0.9577 | Difference [2]: −0.24

COP(=S)(OC)Oc1ccc([N+](=O)[O-])c(C)c1 [Fenitrothion]
Difference [1, 11]: −0.22 | Cholesterol-free [1, 3]: 0.8622 | Complete ([1]; NCI-H292 cells, complete media): 0.6445 | Cholesterol-free media + simvastatin (0.04 μM) [2, 21]: 1.585 | Complete Media [2, 13]: 1.426 | Difference [2, 15]: −0.16

CN(C)c1cc(NC(=O)CNC(C)(C)C)c(O)c2c1C[C@H]1C[C@H]3[C@H](N(C)C)C(O)=C(C(N)=O)C(=O)[C@@]3(O)C(O)=C1C2=O [Tigecycline (tetramesylate)]
Difference [1, 19]: 0.02 | Cholesterol-free [1, 16]: 0.1191 | Complete [1, 17]: 0.1424 | Cholesterol-free media + simvastatin (0.04 μM) [2, 21]: 0.4075 | Complete Media [2, 13]: 0.333 | Difference [2, 10]: −0.07

Goserelin (acetate)
Difference [1, 11]: −0.26 | Cholesterol-free [1, 3]: 1.173 | Complete ([1]; NCI-H292 cells, complete media): 0.9084 | Cholesterol-free media + simvastatin (0.04 μM) [2, 8]: 1.497 | Complete Media [2, 9]: 1.249 | Difference [2, 15]: −0.25

CC(=O)OC(C)C[N+](C)(C)C.[Cl-] (centres unmarked) [Methacholine (chloride)]
Difference [1, 20]: −0.15 | Cholesterol-free [1, 12]: 1.05 | Complete [1, 13]: 0.8971 | Cholesterol-free media + simvastatin (0.04 μM) [2, 26]: 1.245 | Complete Media [2, 27]: 1.195 | Difference [2, 28]: −0.05
